Entries after “also recorded” stand apart in the source; their conditions may differ.
Columns and labels:
[1] = system: healthy female panelists; assay: CNV test (contingent negative variation) with inhaled scent samples; format: in vivo, human; settings: for psycho-sedative / psycho-stimulative effect by measured CNV values (FIG. 1): scent inhaled about 10 cm under the nose, five healthy female panelists, CNV area relative to blank (100%): 100% or less sedative, 100% or more arousal
Source text: The psycho-sedative effect was investigated by measuring negative changes in electric potential, so-called contingent negative variation (CNV). CNV is known to be a slow cerebral potential variation which relates to psychological processes such as alertness, expectation, and anticipation and to changes in the level of consciousness.
In order to screen out a compound having a psycho-sedative or psycho-stimulative effect, a light signal which indicates start of movement is emitted two seconds after stimulation with a warning sound, and a panelist is required to react (i.e., push a button) simultaneously with the recognition of the light. During repetition of a series of such processes, an aromatic product sample is arranged about 10 cm under the nose of the panelist so that its scent can be acknowledged with breathing. An electrode for the measurement of CNV is set on the forehead of the panelist so as to record electric potential between the forehead and an earlobe. It has already been reported that the CNV amplitude increases when caffeine having an arousal effect is perorally administered to humans, whereas the amplitude decreases when nitrazepam having a sedative effect is allowed to be […].
In this test, the psycho-sedative effect was evaluated by use of the percentage as an index. A relative area of 100% or less indicates a sedative effect, and a relative area of 100% or more indicates an arousal effect.
Five healthy female panelists were subjected to the aforementioned CNV test.
Five healthy female adult panelists were subjected to the aforementioned CNV test.
(B) The following samples were prepared: a 1% ethanol solution of perilla aldehyde (commercial product); a 1% ethanol solution of perilla alcohol (commercial product); a 1% ethanol solution of DMMB (commercial product); and a 1% ethanol solution of lemon oil (commercial product). Five healthy female adult panelists were subjected to the aforementioned CNV test.
The following samples were prepared: a 0.05% ethanol solution of solo perilla aldehyde (1); a 0.05% ethanol solution of solo perilla alcohol (2); and an ethanol solution containing perilla aldehyde (0.05%) and perilla alcohol (0.05%) (3). Five healthy female adult panelists were subjected to the aforementioned CNV test.

[2] = system: healthy female panelists; settings: already reported; humans; caffeine perorally administered, nitrazepam allowed to be inhaled; cited from earlier work
[3] = disclosed in Japanese Patent Application Laid-Open (kokai) No. 6-172781; also through inhalation of vaporized perfume; cited from earlier work
[4] = 1% ethanol solution, five healthy female adult panelists, CNV area relative to blank (100%)

Row | Compound | psycho-sedative / psycho-stimulative effect by measured CNV values (FIG. 1) ([1]; 1% ethanol solution) | other results
1 | CC(=O)C1(C)CC2=C(CCCC2(C)C)CC1C (centres unmarked) [Iso E Super] | psycho-sedative effect similar to that of DMMB | 
2 | CC(C)=CCC/C(C)=C\CO [nerol] | psycho-sedative effect similar to that of DMMB | 
3 | CC(C)(O)CCCC1=CCC(C=O)CC1 (centres unmarked) [lyral] | psycho-sedative effect similar to that of DMMB | 
4 | CC(C)c1ccc(CO)cc1 [cuminyl alcohol, 4-isopropylbenzyl alcohol] |  | psycho-stimulative / psycho-sedative effect by measured CNV values (FIG. 2) [1, 4]: psycho-stimulative effect similar to that of limone oil
5 | CCCCCCCCCCCCCC(=O)OCC [ethyl myristate, ethyl tetradecanoate] |  | psycho-stimulative / psycho-sedative effect by measured CNV values (FIG. 2) [1, 4]: psycho-stimulative effect similar to that of limone oil
6 | Cn1c(=O)c2c(ncn2C)n(C)c1=O [caffeine] |  | CNV amplitude change [2]: increases
7 | CCCCCC1C(=O)CCC1CC(=O)OC (centres unmarked) [hedione, methyl dihydrojasmonate] | psycho-sedative effect similar to that of DMMB | 
8 | COC(=O)c1ccc(OC)cc1 [methyl anisate] | psycho-sedative effect similar to that of DMMB | 
9 | CC(C=O)Cc1ccc2c(c1)OCO2 (centres unmarked) [helional] | psycho-sedative effect similar to that of DMMB | 
10 | CC(=O)/C(C)=C/C1C(C)=CCCC1(C)C (centres unmarked) [γ-methyl ionone] | psycho-sedative effect similar to that of DMMB | 
11 | C=C(C)C1CC=C(C=O)CC1 (centres unmarked) [perilla aldehyde, dihydrocuminyl aldehyde] |  | synergistic psycho-stimulative effect by measured CNV values (FIG. 4) ([1]; 0.05% ethanol solution of each component, solo or combined, five healthy female adult panelists): acknowledged to have a psycho-stimulative effect; psycho-stimulative effect by measured CNV values (FIG. 3) [1, 4]: acknowledged to have a psycho-stimulative effect; also recorded: remarkably strong psycho-stimulative effect as compared with lemon oil
12 | OCCc1ccccc1 [β-phenylethyl alcohol] | psycho-sedative effect similar to that of DMMB | 
13 | Cc1ccc(CC=O)cc1 [p-methylphenylacetaldehyde] | psycho-sedative effect similar to that of DMMB | 
14 | CC(C=O)Cc1ccc(C(C)(C)C)cc1 (centres unmarked) [lilial] | psycho-sedative effect similar to that of DMMB | 
15 | CC1=C2CCC(C)CC2OC1=O (centres unmarked) [menthalactone, 3,6-dimethyl-5,6,7,7a-tetrahydro-2(4H)-benzofuranone] |  | psycho-stimulative / psycho-sedative effect by measured CNV values (FIG. 2) [1, 4]: psycho-stimulative effect similar to that of limone oil
16 | CC(C)=CCC/C(C)=C/CO [geraniol] | psycho-sedative effect similar to that of DMMB | 
17 | CC=Cc1ccc(OC(C)=O)c(OC)c1 [acetyl isoeugenol, methoxy-4-acetoxypropenylbenzene] | psycho-sedative effect similar to that of DMMB | 

Row | Compound | psycho-sedative / psycho-stimulative effect by measured CNV values (FIG. 1) ([1]; 1% ethanol solution) | other results
18 | C=CC(C)=CCC=C(C)C [ocimene] | psycho-sedative effect similar to that of DMMB | 
19 | C=CC(C)(O)CCC=C(C)C (centres unmarked) [linalool] | psycho-sedative effect similar to that of DMMB | 
20 | C/C=C(/C)C(=O)OCCc1ccccc1 [phenylethyl angelate, 2-phenylethyl(Z)-2-methyl-2-butenoate] |  | psycho-stimulative / psycho-sedative effect by measured CNV values (FIG. 2) [1, 4]: psycho-stimulative effect similar to that of limone oil
21 | O=C1CN=C(c2ccccc2)c2cc([N+](=O)[O-])ccc2N1 [nitrazepam] |  | CNV amplitude change [2]: decreases
22 | CC1=CCC2C(=O)C1C2(C)C (centres unmarked) [chrysanthenone] | psycho-sedative effect similar to that of DMMB | 
23 | CCC1CCC(=O)O1 (centres unmarked) [γ-hexalactone] | psycho-sedative effect similar to that of DMMB | 
24 | COc1cc(C)cc(OC)c1 [DMMB, 1,3-dimethoxy-5-methylbenzene, reference compound] |  | sedative effect [3]: has a sedative effect; psycho-stimulative / psycho-sedative effect by measured CNV values (FIG. 2) [1, 4]: psycho-sedative effect of DMMB was confirmed
25 | CC/C=C\CCOC(=O)c1ccccc1O [Z-3-hexenyl salicylate, cis-3-hexenyl salicylate] | psycho-sedative effect similar to that of DMMB | 
26 | terpinyl butyrate | psycho-sedative effect similar to that of DMMB | 
27 | CC(C)=CCCC(C)CCO (centres unmarked) [citronellol] | psycho-sedative effect similar to that of DMMB | 
28 | C=CC(C)(CCC=C(C)C)OC(C)=O (centres unmarked) [linalyl acetate] | psycho-sedative effect similar to that of DMMB | 
29 | C=C(C)[C@H]1CC=C(C)CC1 [limonene] | psycho-sedative effect similar to that of DMMB | 
30 | C/C=C(/C)C(=O)OCCC(C)C [isoamyl angelate, isoamyl(Z)-2-methyl-2-butenoate] |  | psycho-stimulative / psycho-sedative effect by measured CNV values (FIG. 2) [1, 4]: psycho-stimulative effect similar to that of limone oil
31 | CCCCCC1CCC(=O)O1 (centres unmarked) [γ-nonalactone] | psycho-sedative effect similar to that of DMMB | 
32 | CC(=O)OC/C=C(\C)CCC=C(C)C [geranyl acetate] | psycho-sedative effect similar to that of DMMB | 
33 | CC1=CC(=O)C(C(C)C)CC1 (centres unmarked) [piperitone, p-menth-1-en-3-one] |  | psycho-stimulative / psycho-sedative effect by measured CNV values (FIG. 2) [1, 4]: psycho-stimulative effect similar to that of limone oil
